Compared with `CC1(CN2CCC(Oc3ccc(C(F)(F)F)cc3)CC2)Cn2cc([N+](=O)[O-])nc2O1` (centres undefined), `CCOC(=O)N1CCN(c2nc(N(C(C)=O)C3CC3)ccc2[N+](=O)[O-])CC1` is lower in melting point: 113 to 114 °C for the first, 90 to 93 °C for the second.

First: Cc1cccc(-c2nc(N)sc2-c2ccnc(-c3ccc(OCCN4CCCC4)cc3)c2)n1
Second: COc1ccnc(CCc2nc3cc(-c4ccc(S(=O)(=O)NCc5ccccc5)cc4)cnc3[nH]2)c1
The melting point of the first is lower: 176 to 178 °C for the first, 211 to 212 °C for the second.

First: Brc1cccc(Sc2ccc3ccccc3c2)c1
Second: CC(C)(C)OC(=O)c1nc(-c2cccc3ccccc23)[nH]c1-c1ccncc1
The melting point of the first is lower: 68 to 70 °C for the first, 184 to 190 °C for the second.

First: COc1ccc(C(=O)c2sccc2O)cc1
Second: CC(=O)c1ccc(Oc2ccc(Cl)cc2)cc1
The melting point of the first is higher: 86 to 87 °C for the first, 66 to 68 °C for the second.

First: CCOC(=O)C(N)N=Nc1ccc(Br)cc1C(=O)c1ccccn1 (centres undefined)
Second: CNC(=O)c1cccc(Nc2ncnc3[nH]cc(C(=O)c4cccc(F)c4)c23)c1
The melting point of the first is lower: 156 to 157 °C for the first, > 300 °C for the second.

First: CSc1nnc(C(C)C2CC2)c(=O)n1N (centres undefined)
Second: CC(Cn1ncnn1)n1nnc2cc3c(=O)n(C)nnc3cc2c1=O (centres undefined)
The melting point of the first is lower: 111 to 113 °C for the first, 228 to 230 °C for the second.

First: Cc1nnc(N2N=C(c3ccc([N+](=O)[O-])cc3)c3cc4c(cc3CC2C)OCO4)s1 (centres undefined)
Second: O=C(Nc1ccc(-c2c[nH]c(=O)cn2)cc1)c1cccc([N+](=O)[O-])c1
The melting point of the first is lower: 101 to 102 °C for the first, > 250 °C for the second.

First: CCCCn1nnc(-c2ccc(C(=O)NCC3CCCC3(C)C)cc2)n1 (centres undefined)
Second: O=C(CCc1oc(-n2cncn2)nc1-c1ccc(Cl)cc1)NCCCl
The melting point of the first is lower: 121 to 123 °C for the first, 157 to 158 °C for the second.

First: CC(=O)Nc1nc(C)c(S(=O)(=O)NC(C)(C)CO)s1
Second: CNC(C)=C(C(C)=O)S(=O)(=O)NC(=O)Nc1nc(C)cc(C)n1
The melting point of the first is higher: 194 °C for the first, 192 °C for the second.

First: CC1(C)Oc2ccc(OC(F)F)cc2[C@@H](N2CCCCC2=O)[C@@H]1O (relative stereo)
Second: CNC(=O)C1=CC(C)(COC)Oc2ccc([N+](=O)[O-])cc21 (centres undefined)
The melting point of the first is higher: 165 °C for the first, 128 to 130 °C for the second.

First: CCCS(=O)(=O)c1ccccc1S(=O)(=O)NC(=O)Nc1nc(Cl)cc(OCC)n1
Second: O=C(Nc1ccc(Cl)cc1)NS(=O)(=O)c1ccc2c(c1)CCCC2
The melting point of the first is higher: 220 to 222 °C for the first, 163 to 165 °C for the second.

First: CCCCCCCCC1SC(=S)SC1CCCCCCCCO (centres undefined)
Second: CCCCCCCCCCCCSCCCN(CCO)CCO
The melting point of the first is lower: 40 to 47 °C for the first, 53 to 54 °C for the second.

First: COc1ccccc1C1(c2ccc(N(C)C)cc2)OC(=O)c2cc(N(C)C)ccc21 (centres undefined)
Second: COC(=O)c1ccc2c(c1)c(=O)cc(-c1ccccc1)n2C
The melting point of the first is higher: 215 to 216 °C for the first, 174 to 176 °C for the second.

First: CCCC(Oc1cccc(-c2noc(C)n2)c1)C(=O)O (centres undefined)
Second: Nc1ccccc1-c1cccc(C(=O)O)c1
The melting point of the first is lower: 98 to 100 °C for the first, 170 °C for the second.

First: O=CNc1cccc2ccc(O)cc12
Second: COc1cc(-c2cc3ccccc3[nH]2)ccc1O
The melting point of the first is higher: 203 to 205 °C for the first, 165 °C for the second.

First: O=C(O)c1c(Cc2ccccc2)nc2c(C(F)(F)F)cccc2c1O
Second: Oc1cccc2c(CCc3ccccc3)ccnc12
The melting point of the first is higher: 252 °C for the first, 102 to 103 °C for the second.

Compared with `N#Cc1cc(Br)c2c(c1)N(C1CC1)CNS2(=O)=O`, `N#Cc1cccc(NC(=O)NCc2cccc3c2CN(C2CCC(=O)NC2=O)C3=O)c1` (centres undefined) is higher in melting point: 250 to 253 °C for the first, 330 to 333 °C for the second.

Compared with `[N-]=[N+]=NC1(O)CC(n2ccc(N)nc2=O)OC1CO` (centres undefined), `O=C(O)c1cc2n(n1)CCC2` is lower in melting point: 174 to 176 °C for the first, 140 to 145 °C for the second.

First: COC(=O)C(Cc1ccc(O)c(O)c1)NC(=O)OC(C)(C)C (centres undefined)
Second: CCCCCCOC(=O)CC[C@@H](NC(=O)[C@@H](NC(=O)OC(C)(C)C)C(C)C)C(N)=O
The melting point of the first is higher: 132 to 135 °C for the first, 94 to 95 °C for the second.

First: CCCCCCCCCCCCCCCC(=O)N[C@@H](CSC[C@H](O)CO)C(=O)O
Second: C[C@H](O)CCC[C@H](O)CCCCCc1cccc(O)c1C(=O)O
The melting point of the first is higher: 110 °C for the first, 83 to 84 °C for the second.

First: CC12CC(=NO)C(C)(C)C1C(O)C2 (centres undefined)
Second: CCC1(C)CC(O)CC(C)(C)N1OC(C)(C)C#N (centres undefined)
The melting point of the first is higher: 130 to 133 °C for the first, 48 to 60 °C for the second.

First: COc1c(CC(=O)O)c2c(c3c1OC(C)(C)C3)C(c1ccccc1)=NC(C)(C)C2
Second: CC(C)(C)C(=O)Oc1nc(-c2ccccc2)sc1-c1ccccc1
The melting point of the first is higher: 225 to 245 °C for the first, 134 to 136 °C for the second.

Compared with `ON=C(c1ccccc1)c1ccc(OCCCCOc2ccc(C(=NO)c3ccccc3)cc2)cc1`, `N#CCOc1ccc(CCNC(=O)OCc2ccccc2)cc1` is lower in melting point: 154 to 156 °C for the first, 110 to 115 °C for the second.

First: CCCCc1cc2cc(OCC(=O)OCC)c(Cl)c(Cl)c2s1
Second: CCOC(=O)c1nc(N)sc1-c1cn2c(C)cccc2n1
The melting point of the first is lower: 72 to 73 °C for the first, 234 to 236 °C for the second.

Compared with `O=C(c1cc(C(F)(F)F)cc(C(F)(F)F)c1)N1CCC2(CC1)C(=O)NCN2c1ccccc1`, `Nc1nc(CCc2ccccc2)cc(C2CCN(C(=O)c3ccccc3)CC2)n1` is lower in melting point: 251 °C for the first, 104 to 106 °C for the second.

First: NC(=O)c1ccc(F)c2c1OCC(N(CCCc1c[nH]c3ccc(F)cc13)CC1CC1)C2 (centres undefined)
Second: CCCCOc1cc(Oc2ccc(C(F)(F)F)cn2)ccc1CCCOc1c(CC(=O)O)cccc1OC
The melting point of the first is higher: 123 °C for the first, 64 to 65 °C for the second.

Compared with `O=c1[nH]c2ccc(Cl)cc2n1CCN1CCCCC1`, `CN(C)CCn1c2c(c3ccccc31)CCS(=O)(=O)CCC2` is lower in melting point: 156 to 158 °C for the first, 154 to 155 °C for the second.

First: CCCC1=C(C(=O)OCC)C(c2cccc([N+](=O)[O-])c2)C(C(=O)OCC)=C(C)N1COCC (centres undefined)
Second: CCOC(=O)c1c(N2CCN(C(=O)OCC)CC2)c2ccc(C)nc2n(CC)c1=O
The melting point of the first is lower: 97 °C for the first, 138 to 140 °C for the second.

Compared with `C[C@H](NC(=O)CCS)C(=O)O`, `O=C(CCCCCS(=O)(=O)Nc1ccccc1)NO` is higher in melting point: 64 °C for the first, 97 to 98 °C for the second.

First: Nc1ccc(-c2ncnn2-c2ccc(Br)cc2)cc1
Second: Cc1noc(NS(=O)(=O)c2ccccc2-c2ccc(-n3cccn3)cc2)c1C
The melting point of the first is higher: 128 to 130 °C for the first, 88 to 98 °C for the second.

`N=c1nc(N)c2nc[nH]c2c(N)n1` and `COc1cccc(OC)c1-c1cc2cnc(N)nc2nc1N` cannot be ordered by melting point: > 200 °C for the first, > 300 °C for the second.

Compared with `C1=Cc2cc(/C=C/c3ccc4c(c3)C=C4)ccc21`, `CN1Cc2c(c3ccccc3c3ccccc23)C1` is lower in melting point: 132 °C for the first, 122 to 123 °C for the second.

First: CC12CCC(O)CC1=CCC1C2CCC2(C)C(c3ccsc3)=CCC12 (centres undefined)
Second: O=C(Nc1cccc2ccccc12)N1C(=O)C2(CCCCC2)NC12CCCCC2
The melting point of the first is higher: 215 to 219 °C for the first, 157 to 160 °C for the second.

Compared with `O=C(Nc1cccc(-c2ccnc3c(C(=O)c4cccs4)cnn23)c1)NC1CCCCC1`, `CCCc1c(C(=O)NCc2ccc(-c3ccc(O)c(Br)c3)cc2)cnn1-c1ccccc1` is lower in melting point: 233 to 236 °C for the first, 184 to 186 °C for the second.

Compared with `CCCC(NS(N)(=O)=O)C(=O)OC` (centres undefined), `CCS(=O)(=O)c1cc(C(C)(C)C)cc(C=O)c1O` is higher in melting point: 63 to 64 °C for the first, 92 to 93 °C for the second.

First: CCn1cc(N(C)S(=O)(=O)c2cccs2)c2[nH]c(C3=NCCS3)cc21
Second: CN(C)S(=O)(=O)N(C)c1cccc2cc(-c3nccs3)[nH]c12
The melting point of the first is higher: 163 °C for the first, 123 °C for the second.

First: CCOC(=O)c1cn(CCO)c2nc(N3CCN(C)CC3)ncc2c1=O
Second: CCOC(=O)c1cn(-c2nc(NC(C)(C)CC(C)(C)C)ccc2F)c2c(Cl)c(F)c(F)cc2c1=O
The melting point of the first is higher: 197 to 199 °C for the first, 178 to 180 °C for the second.

Compared with `COc1cc(Cl)c(N)cc1-c1nc(C)c(-c2cccnc2)[nH]1`, `Cc1nccc2[nH]c(=O)c(N)cc12` is higher in melting point: 173 to 175 °C for the first, 283 to 285 °C for the second.

First: Cc1[nH]cnc1C(=O)OCc1ccccc1
Second: CCNC(CO)Cc1cn(Cc2ccccc2)cn1 (centres undefined)
The melting point of the first is higher: 203 to 205 °C for the first, 109 to 110 °C for the second.

First: CC(C)Cn1cnc(C#N)c1N
Second: CN=CN(C)c1ccccc1C#N
The melting point of the first is higher: 186 to 188 °C for the first, 60 to 63 °C for the second.

First: CCCCOc1c(N(C)C(=O)OC(C)(C)C)n(CC(C)(C)C)c(=O)c2ccc(O)cc12
Second: CC(C)(C)[Si](C)(C)N1C(=O)CC1C(=O)NC(Cc1c[nH]c2ccccc12)C(=O)OCc1ccccc1 (centres undefined)
The melting point of the first is higher: 196 to 197 °C for the first, 60 to 65 °C for the second.

Compared with `CCCCCCC#CC(O)C1=Nc2ccccc2C(=O)C1C` (centres undefined), `CN(C)C(=O)C(CCO)C1(C)OCCc2c1[nH]c1ccccc21` (centres undefined) is higher in melting point: 148 to 149 °C for the first, 158 to 160 °C for the second.

First: O=C1c2ccccc2-c2c1c1ccccc1c(=O)n2CCCCCCNS(=O)(=O)c1ccc(Br)cc1
Second: Oc1ccc(-c2c3ccccc3c(Br)c3sc4ccccc4c23)cc1
The melting point of the first is lower: 188 to 190 °C for the first, 211 to 213 °C for the second.

Compared with `c1ccc(-c2ccc(-c3nc4n(n3)CCCc3ccccc3-4)cc2)cc1`, `O=C(O)[C@@H](CCN1Cc2ccccc2C1=O)Oc1c(Br)cc(-c2c3ccccc3c(Br)c3sc4ccccc4c23)cc1Br` is higher in melting point: 135 to 137 °C for the first, 239 to 241 °C for the second.

First: CC(=O)CCC1(C(N)=O)c2ccccc2-c2ccccc21
Second: O=[N+]([O-])c1c(Cl)cccc1-c1nc2ccccc2[nH]1
The melting point of the first is lower: 125 to 128 °C for the first, > 260 °C for the second.

First: O=C1Cc2cccc(Oc3ccc(Cl)cc3)c2O1
Second: COc1ccc(COc2cccnc2NC(=N)Nc2ccc(Cl)cc2)cc1
The melting point of the first is lower: 100 to 102 °C for the first, 165 to 166 °C for the second.

Compared with `CC(Sc1nc2ccccc2s1)C(N)=O` (centres undefined), `CCCCC(CNC(=O)Nc1c(C(C)C)cccc1C(C)C)c1cccc(C)c1` (centres undefined) is higher in melting point: 144 to 145 °C for the first, 173 to 174 °C for the second.

First: O=C1NCCN1c1ccc(S(=O)(=O)Nc2ccc(F)cc2)cc1
Second: CC(=O)c1ccc(S(=O)(=O)N2CCCC2)cc1
The melting point of the first is higher: 249 to 251 °C for the first, 138 to 139 °C for the second.

First: COC(=O)c1cc(C)cnc1Cl
Second: COc1cc(C(=O)Nc2ccc3ccc(Cl)nc3n2)cc(OC)c1OC
The melting point of the first is lower: 31 to 33 °C for the first, 210 °C for the second.

First: O=C1Nc2ccccc2C12COc1cc(OC(F)(F)F)ccc12 (centres undefined)
Second: CS(=O)(=O)Cc1cccc(C(F)(F)F)c1N
The melting point of the first is higher: 180 to 182 °C for the first, 96 to 98 °C for the second.

First: COc1ccc(CCCN)cc1Cl
Second: C=C(CC)C(=O)c1ccc(OCC(=O)O)c(Cl)c1
The melting point of the first is lower: 55 to 56 °C for the first, 83.5 to 85.5 °C for the second.

Compared with `Cc1c(F)cc(C(=O)NC(C)C(C)C)cc1-c1ccc(C(=O)NCC(C)(C)C)cc1C(=O)Nc1nccs1` (centres undefined), `COCCCNS(=O)(=O)NC(=O)OC/C=C/c1ccc(OCCOC)cc1Oc1ncc(C(F)(F)F)cc1Cl` is lower in melting point: 234 to 239 °C for the first, 98 to 100 °C for the second.

Source: a melting point compilation (Tetko et al.; mined from patent text by program, amines drawn as free bases though some values may be those of a salt)
